Measured values as given in US5444069A, “Imidazo-pyridine angiotensin II antagonists used to treat memory loss” (Warner-Lambert Company, priority 1994, dated 1995).

Assays:
[1] = biological target: T1, AT2 receptor (rabbit uterus receptor preparations) (Oryctolagus cuniculus, UniProt G1T351); experiment: displacement of 3H-angiotensin II from rabbit uterus receptor preparations; format: binding; conditions: read-out: IC50 Values in Rabbit Uterine Preparations
T1 construct: cell membrane preparations derived from rabbit uterus and corpus luteum; from tissue; host or cells: rabbit uterus, cell membrane preparation
T1 sequence (G1T351 1-363): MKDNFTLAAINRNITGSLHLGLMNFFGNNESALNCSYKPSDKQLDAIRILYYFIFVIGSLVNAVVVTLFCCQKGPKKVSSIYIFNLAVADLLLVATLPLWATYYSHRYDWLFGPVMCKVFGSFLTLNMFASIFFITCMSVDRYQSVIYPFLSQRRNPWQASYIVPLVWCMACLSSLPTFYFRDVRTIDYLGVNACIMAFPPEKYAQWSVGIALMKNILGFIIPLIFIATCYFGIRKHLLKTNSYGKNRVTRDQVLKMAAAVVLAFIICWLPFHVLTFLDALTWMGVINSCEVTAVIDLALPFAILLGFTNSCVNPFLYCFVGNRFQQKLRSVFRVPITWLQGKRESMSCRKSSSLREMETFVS
From the text: AT2 receptors are known to exist in organs of the female reproductive system. […] More specifically, AT2 receptors are densely located on granulosa cells in atretic follicles of the ovary.

[2] = tested on: rat hippocampus acetylcholine (ACh); experiment: effect on rat hippocampal acetylcholine (ACh) levels; conditions: 30 mg/kg IP, 0.5 h; ± SEM; vehicle 23.9 ± 2.39; * p < 0.05
Experimental: Thirty minutes after dosing, the rats were sacrificed by exposure to microwave irradiation. […] Haloperidol (2 mg/kg, IP) provides a positive control.
dosing ACh concentrations were determined as described below.

[3] = tested on: angiotensin II receptors (AT1 and AT2), rat brain regions; experiment: displacement of 125I-angiotensin II from receptor preparations of rat brain regions; format: binding
Experimental: The concentration of all three antagonist compounds in these experiments is 1 μM (above the maximal effect concentration).

[4] = biological target: T2, AT2 receptor (whole rat brain) (Rattus norvegicus, UniProt P35351); experiment: angiotensin II receptor binding in whole rat brain (DTT protocol)
T2 construct: IC50 Values in whole Rat Brain Preparations; from tissue; host or cells: whole rat brain
T2 sequence (P35351 1-363): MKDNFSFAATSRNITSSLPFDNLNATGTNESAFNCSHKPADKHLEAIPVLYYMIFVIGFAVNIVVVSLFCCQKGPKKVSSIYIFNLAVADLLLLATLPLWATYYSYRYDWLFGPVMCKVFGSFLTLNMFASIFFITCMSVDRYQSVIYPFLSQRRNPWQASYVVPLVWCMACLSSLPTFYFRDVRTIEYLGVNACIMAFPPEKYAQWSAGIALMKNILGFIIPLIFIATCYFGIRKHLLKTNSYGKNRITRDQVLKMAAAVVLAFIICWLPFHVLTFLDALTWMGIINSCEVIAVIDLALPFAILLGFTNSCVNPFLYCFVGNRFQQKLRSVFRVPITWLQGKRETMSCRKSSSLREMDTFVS
From the text: Since receptor-specific binding in whole brain is low and is a mixture of two subtypes, an alternative protocol (Bennett and Snyder, Eur. J. Pharmacol., 67, 11-25) was used. This method includes DTT and thereby eliminates binding at AT1 receptors, thus-allowing evaluation of AT2 receptor events.

[5] = tested on: angiotensin II receptors (AT1/AT2) of corpus luteum; experiment: inhibition of 125I-angiotensin II binding, corpus luteum; design: species or system rabbit; conditions: 1 μM; 125I-angiotensin II; data from Warner-Lambert Co.
[6] = effect on renal free water clearance in anesthetized dogs; conditions: for Free Water Clearance: predose -0.24 ± 0.05, mean ± SE
From the text: Dogs were anesthetized with sodium pentobarbital after an overnight fast. Animals were placed on a prewarmed surgical table, intubated and prepared for renal clearance experiments. Femoral arteries were cannulated for aortic blood pressure measurements and for blood sampling. A femoral vein was cannulated and used for the infusion of inulin. A left flank incision was made to expose the kidney and ureter. An electromagnetic flow probe was placed on the left renal artery and the left ureter was cannulated for urine collection. An intrarenal infusion of 5% dextrose in water (D5W, 50 μL/min) was administered throughout the protocol except during drug treatment intervals. A priming dose of 50 mL D5W containing 200 mg/kg insulin was administered to each dog via the femoral vein catheter and then followed by a sustained infusion of inulin in D5W (15 mg/mL, 0.075 mL/min/kg).
A clearance consisted of a timed urine collection with a midpoint blood sample. […] These last two clearances were designated as postdose.
Plasma and urinary electrolytes were determined with an ion selective electrode analyzer. Urine and plasma inulin concentrations were assayed using an anthrone colorimetric method (Davidson, et al, J. Lab and Clin. Med., 1963, 62, 351-356). Renal clearances and fractional excretion were calculated using standard formulas (Vander, Renal Physiology, 4th ed, pp 44-52 (1991)).

[7] = tested on: AT2 receptor, ovarian cells; conditions: Pucell et al., Endocrinology 1991; cited from earlier work
[8] = tested on: angiotensin II receptors (AT1/AT2) of granulosa cell; conditions: cited from earlier work
[9] = tested on: rat striatum acetylcholine (ACh); experiment: effect on rat striatal acetylcholine (ACh) levels; format: in vivo; conditions: for ACh concentration, rat striatum: vehicle 61.0 ± 2.33; for ACh, rat striatum, time course: control 65.4 ± 2.47
Experimental: ACh concentrations were determined as described below. Each
Results were analyzed by a oneway

[10] = estrous cycles in the mature female rat; format: in vivo; conditions: for Length of cycles: Pre Rx 4; for Number of cycles observed: Pre Rx 10
Experimental: Female rats underwent vaginal smearing every morning for 5 weeks; rats with regular 4-day cycles (proestrus, estrus, metestrus, diestrus) were chosen for further study. Groups of rats (n=5) were implanted with Alzet osmotic minipumps (Model 2ML2) containing Example 1 or vehicle on the afternoon of estrus (approximately 2 PM). Drug-treated animals received 30 mg/kg/day Example I for 14 days. Cycles were continually monitored throughout the treatment period and for an additional 20 to 22 days posttreatment.
Vehicle-treated animals continued to cycle in a 4-day pattern throughout the study.

[11] = 10 mg/kg IP, 0.5 h, ± SEM, * p < 0.05

For `Cc1cc(Cn2cnc3c2C[C@@H](C(=O)O)N(C(=O)C(c2ccccc2)c2ccccc2)C3)ccc1N(C)C` [Example 1], the IC50 [1] was 21 nM, the “ACh, Hippocampus (Table V)” value [2] was 15.1 ± 1.55 nM/g and the “displacement of 125I-angiotensin II in rat brain areas (in words)” value ([3]; 1 μM per text, each area of brain examined) was “displace a fraction of the ^125 I-angiotensin II that is displaced by saralasin”. The “125I-Angiotensin II Bound, Brain Stem” value ([3]; rat brain stem, antagonist 10 μM, total 2124) was 1258 cpm, the “125I-Angiotensin II Bound, Cerebellum” value ([3]; rat cerebellum, antagonist 10 μM, total 571) was 446 cpm and the “125I-Angiotensin II Bound, Cortex” value ([3]; rat cortex, antagonist 10 μM, total 766) was 507 cpm. The “125I-Angiotensin II Bound, Cortical Neurons” value ([3]; rat cortical neurons, antagonist 10 μM, total 2647) was 2118 cpm, the “125I-Angiotensin II Bound, Striatal Membrane” value ([3]; rat striatal membrane, antagonist 10 μM, total 2462) was 1838 cpm and the IC50 [4] was 200 nM. For the same molecule, the “% Inhibition with 1 μM Antagonist, Corpus luteum” value [5] was 3%, the “Free Water Clearance, Change from Predose” value (“Free Water Clearance, Change” below) ([6]; 60 min, dose 3 intrarenal) was “+54%” and the “Free Water Clearance, Change” value ([6]; 90 min, dose 30 intrarenal) was “+150%”. The “Free Water Clearance” value ([6]; 90 min, dose 30 intrarenal, * p = 0.097 vs vehicle) was “+0.11 ± 0.19 mL/min”, the “Free Water Clearance, Change” value ([6]; 120 min, dose 300 intrarenal) was “+370%” and the “Free Water Clearance” value ([6]; 120 min, dose 300 intrarenal, ** p = 0.015 vs vehicle) was “+0.64 ± 0.30 mL/min”. For the same molecule, the “Free Water Clearance” value ([6]; 150 min, postdose (dose 0, after washout), *** p = 0.002 vs vehicle) was “+0.29 ± 0.10 mL/min”, the “Free water clearance, increase from predose levels” value ([6]; intrarenal infusion, cumulative doses 3, 30 and 300 μg/kg/min) was “up to 370%” and the “free water clearance (in words)” value ([6]; versus vehicle control) was “increase in free water clearance that is dose dependant and statistically significant when compared to the vehicle control”. The “AT2 antagonism in ovarian cells” value [7] was “AT2 antagonistic properties”, the “% Inhibition with 1 μM Antagonist, Granulosa cell” value ([8]; 1 μM, 125I-angiotensin II, adapted from Pucell et al., Endocrinology 1991) was 97% and the “displacement of 125I-angiotensin II, granulosa cells (in words)” value ([8]; Table IX) was “displaces nearly all of the 125I-angiotensin II”. The “ACh concentration, rat striatum” value ([9]; 1 mg/kg IP, 0.5 h, ± SEM) was 57.9 ± 1.86 nM/g, the “ACh concentration, rat striatum” value [9, 11] was 48.1 ± 0.99 nM/g and the “ACh, rat striatum, time course” value [9, 11] was 37.6 ± 2.10 nM/g. For the same molecule, the “ACh, rat striatum, time course” value ([9]; 10 mg/kg IP, 1.0 h, ± SEM, * p < 0.05) was 47.9 ± 2.24 nM/g, the “ACh, rat striatum, time course” value ([9]; 10 mg/kg IP, 3.0 h, ± SEM, * p < 0.05) was 50.2 ± 4.53 nM/g and the “ACh, rat striatum, time course” value ([9]; 10 mg/kg IP, 6.0 h, ± SEM) was 55.8 ± 4.28 nM/g. For the same molecule, the “ACh, rat striatum, time course” value ([9]; 10 mg/kg IP, 24.0 h, ± SEM) was 61.3 ± 2.30 nM/g, the “time of peak ACh lowering effect” value ([9]; 10 mg/kg, IP) was 0.5 h and the “time for ACh levels to return to control levels” value ([9]; 10 mg/kg, IP, gradual return) was 24 h. For the same molecule, the “ACh, Striatum (Table V)” value ([9]; 30 mg/kg IP, 0.5 h, ± SEM, vehicle 52.9 ± 1.72, * p < 0.05) was 39.7 ± 0.99 nM/g, the “ACh concentration, rat striatum” value ([9]; 30 mg/kg IP, 0.5 h, ± SEM, * p < 0.05) was 37.6 ± 2.10 nM/g and the “ACh concentration, rat striatum” value ([9]; 60 mg/kg IP, 0.5 h, ± SEM, * p < 0.05) was 41.1 ± 1.89 nM/g. The “striatal ACh lowering compared with haloperidol (in words)” value ([9]; IP, haloperidol 2 mg/kg) was “matched the efficacy of haloperidol”, the “ACh content in brain tissues (in words)” value ([9]; Tables IV, V and VI) was “lowers ACh content in brain tissues in a dose dependant and time dependant manner” and the “cyclicity during treatment (in words)” value ([10]; 30 mg/kg/day, 14 days) was “acyclic during the 14-day treatment interval”. The “cyclicity posttreatment (in words)” value ([10]; 20 to 22 days posttreatment) was “resumed cycling during the posttreatment observation period”, the Length of cycles ([10]; Post Rx (20 to 22 days posttreatment), vehicle Post Rx 4) was 3.9 days and the “Number of cycles observed” value ([10]; Post Rx (20 to 22 days posttreatment), vehicle Post Rx 5) was 4. For the same molecule, the Length of cycles ([10]; Rx: 30 mg/kg/day, 14 days, osmotic minipump, vehicle Rx 4.5) was 14.4 days, the “Number of cycles observed” value ([10]; Rx: 30 mg/kg/day, 14 days, osmotic minipump, vehicle Rx 3) was 1 and the “effect on menstrual cycle (in words)” value ([10]; reproductive studies in rats) was “interrupts the menstrual cycle”.
